Data on 25 compounds can be found in patent publication US20220144838A1, “Compounds as Inhibitors of Macrophage Migration Inhibitory Factor” (NANJING IMMUNOPHAGE BIOTECH CO., LTD., priority 2019, published 2022).

The structures appear in SMILES notation. Where two headings read alike, the source gives them in different places.

For one assay, the system named is BV2 cells. Description: BV2 cell proliferation assay (CCK-8). It counts as cell-based. The following applies: Mus musculus, BV-2, 48 h treatment, FIGS. 6-8, read-out: pIC50 BV2 cell proliferation (converted). The source says:
The assay measures the ability of a compound to inhibit cell proliferation using Cell Counting Kit-8 (CCK-8), which allows sensitive colorimetric assays for the determination of cell viability in cell proliferation and cytotoxicity assays. The highly water-soluble tetrazolium salt, WST-8, is reduced by dehydrogenase activities in cells to give a yellow-color formazan dye, which is soluble in the tissue culture media. The amount of the formazan dye, generated by the activities of dehydrogenases in cells, is directly proportional to the number of living cells.
The assay was performed based on the instruction of the manufacture (Dojindo Molecular Technologies Inc., Rockville, Md., USA). To start the assay, BV2 cells were seeded at a density of […] into 96-well plates and treated with test compounds, which were used at a top final assay concentration of 33.3 μM, diluted in assay medium with 1:3 dilutions to produce 10 point concentration responses, for 48 h. After incubation, the CCK-8 solution (10 μl) was added to each well of the plate and the plates were incubated in incubator at 37° C. for 3 h. Absorbance was recorded three times independently using a microplate reader (Bio-Rad Laboratories, Richmond, Calif., USA) at 450 nm.
Selected examples were tested in the BV2 cell proliferation assay. The data mentioned below represents a mean pIC50 value of multiple test results. It is understood that the data illustrated below may have reasonable variation depending on the specific conditions and procedures used by the person conducting the testing.

The target in a further assay is T1, MIF (Homo sapiens, UniProt P14174).
T1 sequence (P14174 2-115 limits assumed): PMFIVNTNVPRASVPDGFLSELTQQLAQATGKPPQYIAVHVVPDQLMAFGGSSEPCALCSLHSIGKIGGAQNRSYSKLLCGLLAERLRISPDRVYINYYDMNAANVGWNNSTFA
Description: MIF tautomerase assay using pHPP as substrate. It counts as biochemical. The following applies: mean of multiple test results. The method, boiled down:
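Mean pIC50 derived from initial rates (absorbance progress-curve slopes) of MIF-catalyzed ketonic-to-enolic pHPP conversion, read as enol–borate complex. Reactions contained 1.5 mM substrate and 3 nM enzyme (final), 200 mM boric acid stock buffer, BSA and CHAPS, pH 6.0.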

Assay [1] has as its target T2, biotinylated human MIF / MIF receptor ectodomain (sCD74) (Homo sapiens, UniProt P14174).
T2 construct: made in house
T2 sequence (P14174 2-115 limits assumed): T1 sequence (P14174 2-115 limits assumed)
Description: MIF-CD74 binding assay. The following applies: FIGS. 9-12; read-out: pIC50 MIF-CD74 binding (converted). As to the method:
The assay measures the ability of a compound to inhibit the binding of MIF with its receptor CD74 in vitro. 96-well plates were coated with recombinant MIF receptor ectodomain (sCD74=CD7473-232), washed 4 times, and blocked with Superblock (Pierce Biotechnology) at 4° C. overnight. Test compounds, which were used at a top final assay concentration of 33.3 μM, diluted in assay medium with 1:3 dilutions to produce 10 point concentration responses, were pre-incubated with biotinylated human MIF (2 ng/μl) (Roche Applied Sciences) prepared recombinantly for 30 minutes at room temperature. The mixtures then were added to wells for overnight incubation at 4° C. The wells were washed 4 times and strepavidin-conjugated alkaline phosphatase (R&D Systems) was added for one hour incubation at room temperature. After additional washes, 60 μl/well of p-nitrophenyl phosphate (Sigma) substrate was added. Absorbance at 405 nm was plotted as percent A405 relative to wells containing biotinylated human MIF alone. Each plot represented at least three independently performed assays, and each data point depicts a SEM≤10%. Each test compound was analyzed over 10-12 concentrations, and over a ˜500-fold concentration range.
Selected examples were tested in the MIF-CD74 binding assay. The data mentioned below represents a mean pIC50 value of multiple test results. It is understood that the data illustrated below may have reasonable variation depending on the specific conditions and procedures used by the person conducting the testing.

The mark [2] stands for this setting: inhibition of the MIF enzyme in vitro, read-out: Tautomerase Inhibition pIC50 (converted).
Where [3] appears, read: FIGS. 1-5, read-out: pIC50 MIF tautomerase activity (converted).

For the compound `Nc1nc(N2CCN(c3ccc(O)cc3)CC2)nc2c1ncn2-c1cncnc1` [Example 81, 4-(4-(6-amino-9-(pyrimidin-5-yl)-9H-purin-2-yl)piperazin-1-yl)phenol], the IC50 in the assay on BV2 cells is 23100 nM; on MIF (setting [2]), 1000 to 9770 nM.

For the compound `Oc1ccc(N2CCN(c3nc(NCC4CC4)c4ncn(-c5cccnc5)c4n3)CC2)cc1` [Example 95, 4-(4-(6-((cyclopropylmethyl)amino)-9-(pyridin-3-yl)-9H-purin-2-yl)piperazin-1-yl)phenol], the figures for the IC50 in the assay on BV2 cells and on MIF (setting [2]) were 6920 nM and 1000 to 9770 nM, respectively.

For `COc1ncccc1-n1cnc2c(C)nc(N3CCN(c4ccc(O)cc4)CC3)nc21` [Example 62, 4-(4-(9-(2-methoxypyridin-3-yl)-6-methyl-9H-purin-2-yl)piperazin-1-yl)phenol], the IC50 is 10 to 97.7 nM at MIF (setting [2]) and 26300 nM in assay [1].

With `Nc1nc(N2CCN(c3ccc(O)cc3)CC2)nc2c1ncn2-c1cccnc1` [Example 115, 4-(4-(6-amino-9-(pyridin-3-yl)-9H-purin-2-yl)piperazin-1-yl)phenol], the IC50 on MIF (setting [2]) was 100 to 977 nM; in assay [1] it was 2610 nM.

Take `COc1ccc2c(cnn2-c2nc(N3CCN(c4ccc(O)cc4)CC3)nc3c2ncn3CC(=O)O)c1` [Example 51, 2-(2-(4-(4-hydroxyphenyl)piperazin-1-yl)-6-(5-methoxy-1H-indazol-1-yl)-9H-purin-9-yl)acetic acid]: the IC50 on MIF (setting [3]) is at most 100 nM; on MIF (setting [2]) it was 10 to 97.7 nM; in assay [1], 8910 nM.

Turning to `O=C(O)CCn1cnc2c(-n3ncc4ccccc43)nc(N3CCN(c4ccc(O)cc4)CC3)nc21` [Example 148, 4-(2-(4-(4-hydroxyphenyl)piperazin-1-yl)-6-(1H-indazol-1-yl)-9H-purin-9-yl)propanoic acid], the IC50 at MIF (setting [2]) is 10 to 97.7 nM; in assay [1] it was 4900 nM.

Consider `O=C(O)Cn1cnc2c(N3N=CC4C=CC=CC43)nc(N3CCN(c4ccncc4)CC3)nc21` (stereo not shown) [Example 49, 2-(6-(3a,7a-dihydro-1H-indazol-1-yl)-2-(4-(pyridin-4-yl)piperazin-1-yl)-9H-purin-9-yl)acetic acid], for which the IC50 on MIF (setting [2]) is above 10000 nM.

On to `COc1cccc(-n2cnc3c(C)nc(N4CCN(c5ccc(O)cc5)CC4)nc32)c1Cl` [Example 61, 4-(4-(9-(2-chloro-3-methoxyphenyl)-6-methyl-9H-purin-2-yl)piperazin-1-yl)phenol], for which the IC50 at MIF (setting [2]) was 1000 to 9770 nM.

Turning to `Oc1ccc(N2CCN(c3nc(N4C[C@H](O)[C@@H](O)C4)c4ncn(-c5ccncc5)c4n3)CC2)cc1` [Example 171, (3S,4S)-1-(2-(4-(4-hydroxyphenyl)piperazin-1-yl)-9-(pyridin-4-yl)-9H-purin-6-yl)pyrrolidine-3,4-diol], the IC50 at MIF (setting [2]) is 10 to 97.7 nM.

As for `COc1ncccc1-n1cnc2c(N)nc(N3CCN(c4ccc(O)cc4)CC3)nc21` [Example 79, 4-(4-(6-amino-9-(2-methoxypyridin-3-yl)-9H-purin-2-yl)piperazin-1-yl)phenol], the IC50 at MIF (setting [2]) is above 10000 nM.

Turning to `OCCn1cnc2c(-n3nc(CO)c4ccccc43)nc(N3CCN(c4ccc(O)cc4)CC3)nc21` [Example 152, 4-(4-(9-(2-hydroxyethyl)-6-(3-(hydroxymethyl)-1H-indazol-1-yl)-9H-purin-2-yl)piperazin-1-yl)phenol], the IC50 on MIF (setting [2]) was 10 to 97.7 nM.

As to `O=C(O)Cn1cnc2c(-n3ncc4cc(CO)ccc43)nc(N3CCN(c4ccc(O)cc4)CC3)nc21` [Example 109, 2-(6-(5-(hydroxymethyl)-1H-indazol-1-yl)-2-(4-(4-hydroxyphenyl)piperazin-1-yl)-9H-purin-9-yl)acetic acid], the results for the IC50 on MIF (setting [3]) and on MIF (setting [2]) were at most 100 nM and 10 to 97.7 nM, respectively.

As to `Oc1ccc(N2CCN(c3nc(-n4ncc5ccccc54)c4ncn(C5CCOC5)c4n3)CC2)nc1` (stereo not shown) [Example 228, 6-(4-(6-(1H-indazol-1-yl)-9-(tetrahydrofuran-3-yl)-9H-purin-2-yl)piperazin-1-yl)pyridin-3-ol], on MIF (setting [2]), the IC50 was 100 to 977 nM.

With `OCC(CO)n1cnc2c(N3CCc4ccccc43)nc(N3CCN(c4ccc(O)cc4)CC3)nc21` [Example 133, 2-(2-(4-(4-hydroxyphenyl)piperazin-1-yl)-6-(indolin-1-yl)-9H-purin-9-yl)propane-1,3-diol], the IC50 on MIF (setting [2]) is 100 to 977 nM.

Turning to `Nc1nc(N2CCN(c3ccc(O)cc3)CC2)nc2c1ncn2-c1ccncc1` [Example 80, 4-(4-(6-amino-9-(pyridin-4-yl)-9H-purin-2-yl)piperazin-1-yl)phenol], the IC50 in the assay with BV2 cells is 5020 nM; at MIF (setting [2]), 10 to 97.7 nM.

On to `Oc1ccc(N2CCN(c3nc(N4CCCC4)c4ncn(-c5cccnc5)c4n3)CC2)cc1` [Example 92, 4-(4-(9-(pyridin-3-yl)-6-(pyrrolidin-1-yl)-9H-purin-2-yl)piperazin-1-yl)phenol], for which the IC50 on MIF (setting [2]) was 1000 to 9770 nM.

As to `O=C(O)Cn1cnc2c(-n3nnc4ccc(Cl)cc43)nc(N3CCN(c4ccc(O)cc4)CC3)nc21` [Example 18, 2-(6-(6-chloro-1H-benzo[d][1,2,3]triazol-1-yl)-2-(4-(4-hydroxyphenyl)piperazin-1-yl)-9H-purin-9-yl)acetic acid], the IC50 on MIF (setting [2]) is 10 to 97.7 nM.

For the compound `CCOC(=O)Cn1cnc2c(-n3ncc4ccccc43)nc(N3CCN(c4ccc(O)cc4)CC3)nc21` [Example 44, ethyl 2-(2-(4-(4-hydroxyphenyl)piperazin-1-yl)-6-(1H-indazol-1-yl)-9H-purin-9-yl)acetate], the IC50 on MIF (setting [2]) is 100 to 977 nM.

`O=C(O)Cn1cnc2c(N3Cc4ccccc4C3=O)nc(N3CCN(c4ccc(O)cc4)CC3)nc21` [Example 119, 2-(2-(4-(4-hydroxyphenyl)piperazin-1-yl)-6-(1-oxoisoindolin-2-yl)-9H-purin-9-yl)acetic acid]: the IC50 at MIF (setting [2]) was 100 to 977 nM.

Consider `O=C(O)CCCCn1cnc2c(-n3ncc4ccccc43)nc(N3CCN(c4ccc(O)cc4)CC3)nc21` [Example 150, 5-(2-(4-(4-hydroxyphenyl)piperazin-1-yl)-6-(1H-indazol-1-yl)-9H-purin-9-yl)pentanoic acid], for which the IC50 on MIF (setting [2]) was 10 to 97.7 nM.

For the compound `C#CCn1cnc2c(-n3ncc4ccccc43)nc(N3CCC(O)(c4ccc(O)cc4)CC3)nc21` [Example 222, 1-(6-(1H-indazol-1-yl)-9-(prop-2-yn-1-yl)-9H-purin-2-yl)-4-(4-hydroxyphenyl)piperidin-4-ol], on MIF (setting [2]), the IC50 was 100 to 977 nM.

Regarding `O=C(O)Cn1cnc2c(-n3ncc4c(Cl)cccc43)nc(N3CCN(c4ccc(O)cc4)CC3)nc21` [Example 106, 2-(6-(4-chloro-1H-indazol-1-yl)-2-(4-(4-hydroxyphenyl)piperazin-1-yl)-9H-purin-9-yl)acetic acid], on MIF (setting [2]), the IC50 is 100 to 977 nM.

For the compound `OC[C@H]1CCCN1c1nc(N2CCN(c3ccc(O)cc3)CC2)nc2c1ncn2-c1cccnc1` [Example 93, (R)-4-(4-(6-(2-(hydroxymethyl)pyrrolidin-1-yl)-9-(pyridin-3-yl)-9H-purin-2-yl)piperazin-1-yl)phenol], the IC50 on MIF (setting [2]) is 100 to 977 nM.

Take `CN1CCN(c2nc(N3CCN(c4ccc(O)cc4)CC3)nc3c2ncn3-c2ccncc2)CC1=O` [Example 175, 4-(2-(4-(4-hydroxyphenyl)piperazin-1-yl)-9-(pyridin-4-yl)-9H-purin-6-yl)-1-methylpiperazin-2-one]: at MIF (setting [2]), the IC50 was 10 to 97.7 nM.

In the case of `Cn1cc(-n2cnc3c(N)nc(N4CCN(c5ccc(O)cc5)CC4)nc32)cn1` [Example 88, 4-(4-(6-amino-9-(1-methyl-1H-pyrazol-4-yl)-9H-purin-2-yl)piperazin-1-yl)phenol], the IC50 at MIF (setting [2]) was 1000 to 9770 nM.
